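Protocol summary: plate cells (96-well), add compound at 5 concentrations, incubate 48 h, interpolate endpoints linearly. GI50 = concentration required for 50% inhibition of growth.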 Calls of active or inactive are those of the source. No stated cut-off is given here; in the data, active = GI50 up to about 1.1 µM and inactive = higher. Bounds are passed on as bounds.

Test systems include ACHN; BT-549; HCT-116; HT-29; IGROV-1; MDA-MB-231; MDA-N; MOLT-4; NCI-H226; NCI-H522; NCI/ADR-RES; PC-3; SK-MEL-28; SK-MEL-5; SNB-19; SNB-75; HCC 2998; SR; T47D; Hs-578T.
Holding throughout (assay): DTP human tumour cell line panel, 48 h

Broadly, the GI50 is the concentration at which growth is held to half of that of the control. With `CCN(CC)c1nnc(CCCCCCCCc2nnc(N(CC)CC)o2)o1`, the GI50 with ACHN, in the test with BT-549, in the test on HCT-116, with HT-29, in the test on IGROV-1 and in the test with MDA-MB-231 was > 100 µM (inactive) in each case. Besides, the GI50 in the test on MDA-N, in the test on MOLT-4, in the test on NCI-H226, with NCI-H522, in the test with NCI/ADR-RES and in the test with PC-3 was > 100 µM (inactive) throughout. Further, the GI50 in the test with SK-MEL-28, with SK-MEL-5, with SNB-19 and with SNB-75 was > 100 µM (inactive) in each case.

On to `CCOC(=O)C1=c2[nH]c3cccc4cccc(c43)n2C(=O)CC1`, for which the GI50 in the test on ACHN is > 100 µM (inactive); in the test on BT-549, > 100 µM (inactive); in the test with HCC 2998, 84.7 µM (inactive); in the test on HCT-116, 45.6 µM (inactive); with IGROV-1 it was 49.4 µM (inactive); in the test with MDA-N, > 100 µM (inactive). The GI50 in the test on MOLT-4 was > 100 µM (inactive); with NCI/ADR-RES, > 100 µM (inactive); in the test with PC-3, 93.8 µM (inactive); with SK-MEL-28, > 100 µM (inactive); with SK-MEL-5, 65.3 µM (inactive); in the test with SNB-19 it was > 100 µM (inactive). Besides, the GI50 is > 100 µM (inactive) in the test with SNB-75, > 100 µM (inactive) with SR and 22.5 µM (inactive) in the test on T47D.

With `CCOc1cc2c(cc1O)/C(=N\OC)C[C@@H]1[C@@H]2CC[C@]2(C)[C@@H](O)CC[C@@H]12`, the GI50 in the test with ACHN was 1.09 µM (active); in the test on BT-549 it was 1.71 µM (inactive); in the test on HCC 2998, 1.25 µM (inactive); with HCT-116, < 0.0296 µM (active); in the test with HT-29, 3.81 µM (inactive); in the test on Hs-578T, 0.0698 µM (active). Besides, the GI50 in the test with IGROV-1 is 0.923 µM (active); in the test on MDA-MB-231, 0.685 µM (active); in the test on MDA-N, < 0.0163 µM (active); with MOLT-4, 0.255 µM (active); with NCI-H226, 0.106 µM (active); in the test with NCI-H522 it was 0.0288 µM (active). In addition, the GI50 with NCI/ADR-RES is 0.0319 µM (active); with PC-3 it was 1.39 µM (inactive); with SK-MEL-28, 1.61 µM (inactive); with SK-MEL-5 it was < 0.0253 µM (active); with SNB-19 it was 2.11 µM (inactive); in the test on SNB-75, 0.0219 µM (active). For the same compound, the GI50 in the test with SR was 0.0127 µM (active).

In the case of `CC(C)c1ccc(C(O)(C(=O)O)c2ccc(C(C)C)cc2)cc1`, the GI50 was 40.2 µM (inactive) with ACHN; 91.6 µM (inactive) in the test on BT-549; 36.6 µM (inactive) with HCT-116; 48.9 µM (inactive) in the test with HT-29; 26.3 µM (inactive) in the test with Hs-578T; 55.7 µM (inactive) in the test on IGROV-1. The GI50 in the test on MDA-N was 70 µM (inactive); with MOLT-4 it was 48.8 µM (inactive); with NCI-H226, 24.5 µM (inactive); in the test with NCI-H522, 34 µM (inactive); with NCI/ADR-RES, 73.5 µM (inactive); in the test on PC-3, 31.6 µM (inactive). For the same compound, the GI50 in the test with SK-MEL-28 is 64.9 µM (inactive); in the test with SK-MEL-5, 56.8 µM (inactive); in the test on SNB-19, 45 µM (inactive); in the test on SNB-75, 42.7 µM (inactive); in the test with SR, 60.8 µM (inactive); in the test on T47D, 43.2 µM (inactive).

For `O=C(O)c1ccc(Nc2nc3cc(C(F)(F)F)ccc3nc2C(=O)O)cc1`, the GI50 in the test with ACHN, in the test with BT-549, in the test on HCC 2998, with HCT-116, in the test with HT-29 and in the test on Hs-578T was > 100 µM (inactive) throughout. Further, the GI50 with IGROV-1, with MDA-MB-231, in the test on MDA-N, in the test with MOLT-4, with NCI-H226 and with NCI-H522 was > 100 µM (inactive) each time. For the same compound, the GI50 in the test on NCI/ADR-RES, with PC-3, in the test on SK-MEL-28, in the test on SK-MEL-5, in the test with SNB-19 and in the test with SNB-75 was > 100 µM (inactive) throughout. In addition, the GI50 in the test on SR is > 100 µM (inactive).

On to `CC(NC(=O)C(N)Cc1ccc(O)cn1)C(=O)O` (configuration not stated), for which the GI50 in the test with ACHN, with BT-549, in the test on HCC 2998, with HCT-116, with HT-29 and in the test on Hs-578T was > 100 µM (inactive) in each case. Moreover, the GI50 in the test on IGROV-1, in the test on MDA-MB-231, in the test on MDA-N, with MOLT-4, in the test with NCI-H226 and in the test with NCI-H522 was > 100 µM (inactive) throughout. Further, the GI50 in the test with NCI/ADR-RES, with PC-3, in the test with SK-MEL-28, in the test with SK-MEL-5, with SNB-19 and in the test with SR was > 100 µM (inactive) each time.

Take `C/C(=C\CNc1ncnc2c1ncn2CCC(=O)OC(C)(C)C)CO`: the GI50 in the test with ACHN, in the test on HCC 2998, in the test on HCT-116, in the test with HT-29, in the test on Hs-578T and in the test on IGROV-1 was > 100 µM (inactive) in each case. The GI50 with MDA-MB-231, with MDA-N, with MOLT-4, in the test with NCI-H226, in the test on NCI-H522 and with NCI/ADR-RES was > 100 µM (inactive) in each case. For the same compound, the GI50 with PC-3, in the test with SK-MEL-28, in the test with SK-MEL-5, in the test with SNB-19, in the test with SNB-75 and in the test on SR was > 100 µM (inactive) throughout. Moreover, the GI50 in the test on T47D was > 100 µM (inactive).

On to `COC(=O)/C=C/COCC1C2CCC(=O)C21` (configuration not stated), for which the GI50 with ACHN, in the test with BT-549, with HCC 2998, with HCT-116, in the test with HT-29 and in the test on IGROV-1 was > 100 µM (inactive) each time. The GI50 in the test on MDA-MB-231, in the test with MDA-N, in the test with MOLT-4, with NCI-H226, in the test on NCI-H522 and in the test on NCI/ADR-RES was > 100 µM (inactive) each time. Besides, the GI50 with PC-3, in the test with SK-MEL-28, in the test with SK-MEL-5, with SNB-19, in the test on SNB-75 and with SR was > 100 µM (inactive) throughout.

Regarding `COc1cccc2c1OC1c3ccccc3OCC1(O)C2` (configuration not stated), the GI50 with ACHN, with BT-549, in the test with HCC 2998, in the test on HCT-116, with HT-29 and in the test with IGROV-1 was > 100 µM (inactive) each time. In addition, the GI50 in the test on MDA-MB-231, with MDA-N, in the test on MOLT-4, with NCI-H226, with NCI-H522 and in the test on NCI/ADR-RES was > 100 µM (inactive) in each case. In addition, the GI50 in the test with PC-3, with SK-MEL-5, with SNB-75 and with T47D was > 100 µM (inactive) each time.

For the compound `CN(C)CCNC(=O)c1cccc2c(NC(CCC(N)=O)C(=O)O)c3ccccc3nc12` (configuration not stated), the GI50 in the test with ACHN is 3.37 µM (inactive); in the test on BT-549, 10.5 µM (inactive); in the test on HCC 2998 it was 12.5 µM (inactive); in the test on HCT-116, 6.03 µM (inactive); in the test on HT-29 it was 4.67 µM (inactive); with IGROV-1, 5.25 µM (inactive). Also, the GI50 with MDA-MB-231 is 7.66 µM (inactive); in the test with MDA-N, 8.73 µM (inactive); in the test with MOLT-4, 3.29 µM (inactive); in the test with NCI-H226, 4.95 µM (inactive); with NCI-H522, 5.75 µM (inactive); in the test on NCI/ADR-RES it was 9.98 µM (inactive). For the same compound, the GI50 with PC-3 is 5.43 µM (inactive); in the test on SK-MEL-28 it was 12.5 µM (inactive); with SK-MEL-5, 10.6 µM (inactive); with SNB-19, 3.49 µM (inactive); in the test with SNB-75 it was 13.4 µM (inactive); in the test on SR it was > 100 µM (inactive).

As to `CC(=O)/C(=C/NC(=S)N/N=C1\C(=O)Nc2ccccc21)C(=O)Nc1ccccc1C`, the GI50 is 96.2 µM (inactive) with ACHN; > 100 µM (inactive) in the test on BT-549; > 100 µM (inactive) in the test on HCC 2998; 95.3 µM (inactive) with HCT-116; > 100 µM (inactive) in the test with HT-29; 95.3 µM (inactive) in the test with IGROV-1. For the same compound, the GI50 in the test on MDA-MB-231 is 91.6 µM (inactive); in the test on MDA-N, > 100 µM (inactive); in the test on MOLT-4, > 100 µM (inactive); in the test on NCI-H226, > 100 µM (inactive); in the test with NCI/ADR-RES it was > 100 µM (inactive); in the test on SK-MEL-28, > 100 µM (inactive). In addition, the GI50 is 65.3 µM (inactive) in the test on SK-MEL-5, > 100 µM (inactive) in the test on SNB-19, 52.4 µM (inactive) in the test with SNB-75 and 27.5 µM (inactive) in the test on T47D.

For the origin of these results see ChEMBL document CHEMBL1201862, “PubChem BioAssay data set” (2004).
